Patent US20120270250A1, “TEST SYSTEM FOR MEASURING MEST ACTIVITY AS WELL AS METHODS AND USES INVOLVING THE SAME” (SANOFI, priority 2009, published 2012)

Experiments:
[1] = tested on: endogenous insect cell glycerol 3-phosphate acyltransferase activities; experiment: Glycerol 3-phosphate acyl transferase activity, non-transfected Sf9 crude membranes; format: biochemical, Sf9 insect cells; settings: 1 mM NEM for 1 h
Method: (§1) The assay for determining glycerol 3-phosphate acyl transferase is based on the following principle:
(§2) Glycerol 3-phosphate acyl transferase activity was determined as incorporation of palmitate with palmitoyl CoA as acyl donor and radio-labeled [^3H] glycerol 3-phosphate as acyl acceptor, to obtain radio-labeled palmitoyl glycerol 3-phosphate. Radioactive-labeled product palmitoyl glycerol 3-phosphate was separated from the radio-labeled substrate by addition of a scintillator based on organic solvent in order to determine radioactivity in a suitable counter. After separation of phases, only radio-label in the organic solvent phase, which is saturated with scintillator, is detected, i.e. hydrophobic and amphiphilic substances as radio-labeled palmitoyl glycerol 3-phosphate. Hydrophilic radio-labeled glycerol phosphate, which has not been acylated, remains in the aqueous phase and is, therefore, not counted by the scintillation counter. The low amount of “cross-irradiation” from the aqueous phase to the organic phase was corrected by substracting a blank value of a control (containing all reaction components apart from MEST protein) for all MEST reactions.
(§3) 10 μl enzyme solution were incubated with 50 μl reaction solution at 25° C. for 60 min. Incubation was carried out in an Eppendorf Thermomixer comfort with gentle agitation (450 min^−1), wherein the openings of the plate were sealed by a protection film (Whatman Uni Seal 7704-0009). The reaction was terminated by addition of 5 μl 200 mM glycerol 3-phosphate and 200 μl scintillation liquid (beta-plate, #1205-440, Perkin Elmer) and incubation under agitation as above at 25° C. for 15 min. After at least 12 hours of incubation at 25° C. without agitation for separation of the phases, radioactivity (in dpm) was measured in a scintillation counter (Wallac 1450 micro beta).
(§4) The enzyme solution (total membranes of Sf9 insect cells) was produced as follows: Sf9 insect cells were pelleted by centrifugation and frozen in aliquots (about 7-9 g). When needed, pelleted Sf9 insect cells were quickly thawed in a 37° C. water bath and kept on ice until further processing. Thereafter, they were transferred into a 50 ml glass homogenizer containing 10 ml homogenization buffer and, additionally, 0.5 mM DTT for preparing a suspension. Cells were homogenized in a teflon-in-glass homogenizer (10×1500/min at 4° C.). The homogenate was transferred into JA25.5 centrifugation tubes (Beckman #363647), diluted with 10 ml homogenization buffer plus DTT and pelleted by centrifugation (500 g, 5 min, 4° C., refrigerated centrifuge Beckman Avanti JA25I). The supernatant was transferred into ultracentrifugation tubes (Beckman #355618) and centrifugated (100000 g, 60 min, 4° C., Beckman Optima LE-80K). The supernatant was completely removed. […]

MEST T580B = target: T1, MEST T580B (Homo sapiens, UniProt Q5EB52); experiment: Glycerol 3-phosphate acyl transferase activity, MEST T580B-recombinant Sf9 crude membranes; format: biochemical; settings: 1 mM NEM for 1 h
T1 construct: T579B=amino acids 2-335 and T580B=amino acids 11-335; made in house; host or cells: Sf9 insect cells (baculovirus, pVL1392); crude total membranes
T1 sequence (Q5EB52 11-335): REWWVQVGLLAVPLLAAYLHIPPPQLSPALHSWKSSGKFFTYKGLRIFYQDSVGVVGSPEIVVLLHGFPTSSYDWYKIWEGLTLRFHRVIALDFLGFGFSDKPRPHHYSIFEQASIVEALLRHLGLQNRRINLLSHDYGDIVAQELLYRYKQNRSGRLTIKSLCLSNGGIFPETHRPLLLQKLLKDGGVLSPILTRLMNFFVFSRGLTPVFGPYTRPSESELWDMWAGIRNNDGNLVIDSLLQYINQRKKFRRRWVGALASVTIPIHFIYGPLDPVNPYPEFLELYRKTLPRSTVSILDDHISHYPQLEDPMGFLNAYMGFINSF
Method: as §1, §2
(§5) Membranes of insect cells expressing human recombinant MEST protein (as below) in homogenization buffer adjusted to the desired concentration (determination of protein content by BioRad assay)
as §3
as §4, with “JA25I).” for “JA25I). The supernatant was transferred into ultracentrifugation tubes (Beckman #355618) and centrifugated (100000 g, 60 min, 4° C., Beckman Optima LE-80K). The supernatant was completely removed.”

MEST T579B = target: T2, MEST T579B (Homo sapiens, UniProt Q5EB52); experiment: Glycerol 3-phosphate acyl transferase activity, MEST T579B-recombinant Sf9 crude membranes; format: biochemical
T2 construct: T579B=amino acids 2-335 and T580B=amino acids 11-335; made in house; host or cells: Sf9 insect cells (baculovirus, pVL1392); crude total membranes
T2 sequence (Q5EB52 2-335): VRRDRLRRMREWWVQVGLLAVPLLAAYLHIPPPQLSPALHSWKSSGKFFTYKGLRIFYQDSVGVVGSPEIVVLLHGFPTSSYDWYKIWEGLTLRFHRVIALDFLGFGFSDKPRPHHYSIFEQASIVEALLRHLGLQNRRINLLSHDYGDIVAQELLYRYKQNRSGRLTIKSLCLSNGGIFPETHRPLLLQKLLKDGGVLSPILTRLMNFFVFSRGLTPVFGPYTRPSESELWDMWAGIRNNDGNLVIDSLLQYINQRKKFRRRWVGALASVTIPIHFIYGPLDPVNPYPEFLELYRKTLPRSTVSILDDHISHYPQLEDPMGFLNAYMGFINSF
Method: as §1, §2, §5, §3
The enzyme solution (total membranes of Sf9 insect cells) was produced as follows: Sf9 insect cells were pelleted by centrifugation and frozen in aliquots (about 7-9 g). When needed, pelleted Sf9 insect cells were quickly thawed in a 37° C. water bath and kept on ice until further processing. Thereafter, they were transferred into a 50 ml glass homogenizer containing 10 ml homogenization buffer and, additionally, 0.5 mM DTT for preparing a suspension. Cells were homogenized in a teflon-in-glass homogenizer (10×1500/min at 4° C.). The homogenate was transferred into JA25.5 centrifugation tubes (Beckman #363647), diluted with 10 ml homogenization buffer plus DTT and pelleted by centrifugation (500 g, 5 min, 4° C., refrigerated centrifuge Beckman Avanti JA25I). The supernatant was transferred into ultracentrifugation tubes (Beckman #355618) and centrifugated (100000 g, 60 min, 4° C., Beckman Optima LE-80K). The supernatant was completely removed. The pellet was two times carefully washed with homogenization buffer and then resuspended in homogenization buffer. Enzyme solution was aliquoted, frozen in liquid nitrogen and stored at −80° C.
The experiment was carried out as detailed above. Particularly, crude membranes from insect cells (SF9) transfected to express MEST (T579B) were produced and assayed for glycerol 3-phosphate acyltransferase activity (dpm/test) in the presence of A003564556 or S987600. […]
The experiment was carried out as detailed above. Particularly, crude membranes of non-transfected insect cells (SF9) or insect cells (SF9) transfected to express either MEST (T579B) or GPAT (GPAT1, -3 or -4) were produced and assayed in the presence of 1 mM N-Ethylmaleimide (NEM) for 1 h or at 41° C. for 10 min.

[2] = 1 mM NEM for 1 h, 10 μg Protein/Test
[3] = 1 mM NEM for 1 h, 30 μg Protein/Test
[4] = inhibitor 0.3 μM, MEST T579B 10 μg/Test
[5] = inhibitor 1 μM, MEST T579B 10 μg/Test
[6] = inhibitor 3 μM, MEST T579B 10 μg/Test
[7] = inhibitor 10 μM, MEST T579B 10 μg/Test
[8] = inhibitor 30 μM, MEST T579B 10 μg/Test
[9] = inhibitor 100 μM, MEST T579B 10 μg/Test
[10] = inhibitor 200 μM, MEST T579B 10 μg/Test

## CCN1C(=O)C=CC1=O [NEM, N-Ethylmaleimide]
[1]; 10 μg Protein/Test
  % Inhibition: 95%
  Activity (dpm/Test): 6 dpm/Test
[1]; 30 μg Protein/Test
  % Inhibition: 107%
  Activity (dpm/Test): −12 dpm/Test
MEST T580B; 10 μg Protein/Test
  Activity (dpm/Test): −11 dpm/Test
  inhibition at 1000 µM: 101%
MEST T580B; 30 μg Protein/Test
  Activity (dpm/Test): 31 dpm/Test
  inhibition at 1000 µM: 96%
MEST T579B; 1 mM NEM for 1 h
  Inhibition of MEST activity (in words): completely
MEST T579B; [2]
  Activity (dpm/Test): 49 dpm/Test
  inhibition at 1000 µM: 90%
MEST T579B; [3]
  Activity (dpm/Test): 53 dpm/Test
  inhibition at 1000 µM: 94%

## O=C(O)CCCCCCCCCCCNC(=O)NC12CC3CC(CC(C3)C1)C2 [A003564556]
MEST T579B; MEST T579B crude membranes
  Inhibition of MEST activity (in words): partially inhibited
MEST T579B; [4]
  Activity (dpm/Test): 905 dpm/Test
  inhibition at 0.3 µM: -6%
MEST T579B; [5]
  Activity (dpm/Test): 1011 dpm/Test
  inhibition at 1 µM: -19%
MEST T579B; [6]
  Activity (dpm/Test): 881 dpm/Test
  inhibition at 3 µM: -4%
MEST T579B; [7]
  Activity (dpm/Test): 845 dpm/Test
  inhibition at 10 µM: 1%
MEST T579B; [8]
  Activity (dpm/Test): 779 dpm/Test
  inhibition at 30 µM: 8%
MEST T579B; [9]
  Activity (dpm/Test): 557 dpm/Test
  inhibition at 100 µM: 34%
MEST T579B; [10]
  Activity (dpm/Test): 458 dpm/Test
  inhibition at 200 µM: 48%
MEST T579B; partial inhibition of glycerol 3-phosphate acyl transferase activity
  IC50: ~200 µM
